{
  "source": "patent US10285794B2",
  "about": "“Hernia repair device and methods” (priority 2016, dated 2019)",
  "key": {"[1]": {"tested_on": "human mesenchymal stem cells, human fibroblasts and fibroblasts from mouse, cat and pig", "experiment": "cell culture studies of myofibroblast formation and function", "format": "cell-based"}, "[2]": {"experiment": "rabbit study with cutaneous injection (toxicity, irritation, skin sensitization)", "format": "in vivo"}, "Gram-negative bacteria": {"tested_on": "Gram-negative bacteria", "details": "cited from earlier work"}, "[3]": {"tested_on": "peri-implant capsular scarring", "experiment": "silicone discs impregnated with salinomycin placed submuscular in mice, Masson's trichrome staining", "format": "in vivo, mouse", "description": "Salinomycin can also be used effectively as a small molecule coating on silicone or temporary dressings such as PermeaDerm. […] In this study, silicone discs were impregnated with salinomycin or a control solvent and placed submuscular in mice. Surrounding tissue was harvested at 16 weeks and tissue sections were stained with Masson's trichrome."}, "[4]": {"tested_on": "Gram-positive bacteria, including MRSA, MRSE and Mycobacterium tuberculosis", "details": "cited from earlier work"}, "[5]": {"tested_on": "myofibroblast function (cellular contraction)", "format": "cell-based", "description": "These novel studies highlight the potential of salinomycin to serve as the basis for new anti-scarring agents."}, "fungi such as Candida": {"tested_on": "fungi such as Candida", "details": "cited from earlier work"}, "[6]": {"tested_on": "myofibroblast (scar cell) formation", "experiment": "TGFβ-induced myofibroblast formation (expression of αSMA, calponin and collagen)", "format": "cell-based", "details": "hallmarks of myofibroblasts", "description": "Therapeutic options to treat excessive scarring are limited and most are not proven to be effective. Salinomycin is a novel small molecule that blocks myofibroblast (scar cell) formation."}},
  "data": [
    {"smiles": "CC[C@@H](C(=O)[C@@H](C)[C@@H](O)[C@H](C)[C@@H]1O[C@@H]([C@@H](CC)C(=O)O)CC[C@@H]1C)[C@H]1O[C@]2(C=C[C@@H](O)[C@]3(CC[C@@](C)([C@H]4CC[C@](O)(CC)[C@H](C)O4)O3)O2)[C@H](C)C[C@@H]1C", "note": "[Salinomycin]", "values": [
      {"measurement": "doses that block myofibroblast formation and function", "setting": "[1]", "value": "50 to 200", "unit": "nM"},
      {"measurement": "irritation", "setting": "[2]; in vivo", "value": "non-irritating"},
      {"measurement": "reactivity (signs of erythema or edema)", "setting": "[2]; in vivo", "value": "non-reactive"},
      {"measurement": "skin sensitization", "setting": "[2]; in vivo", "value": "do not cause skin sensitization"},
      {"measurement": "toxicity", "setting": "[2]; low doses required for anti-scarring activity, cutaneous injection", "value": "non toxic"},
      {"measurement": "activity against Gram-negative bacteria", "setting": "Gram-negative bacteria", "value": "inactive"},
      {"measurement": "peri-implant capsular scarring", "setting": "[3]; silicone implants impregnated with 1 micromolar coating solution, mouse", "value": "dramatically reduce"},
      {"measurement": "scar formation (capsule thickness)", "setting": "[3]; submuscular silicone discs in mice, tissue harvested at 16 weeks, Masson's trichrome", "value": "significantly reduced scar formation"},
      {"measurement": "antimicrobial activity against Gram-positive bacteria", "setting": "[4]", "value": "high antimicrobial activity"},
      {"measurement": "myofibroblast function (cellular contraction)", "setting": "[5]", "value": "effectively blocks"},
      {"measurement": "viability", "setting": "[5]", "value": "without affecting viability"},
      {"measurement": "activity against fungi", "setting": "fungi such as Candida", "value": "inactive"},
      {"measurement": "ability of TGFβ to induce expression of αSMA, calponin and collagen", "setting": "[6]", "value": "potently blocks"}
    ]}
  ]
}
